Source: BindingDB's records for doi:10.1007/s00259-006-0324-y (Columbia University, 2007)

Columns and labels:
Histamine receptor H3 = Histamine receptor H3 (Bos taurus, UniProt F1MML8)
Protein lifeguard 1 = Protein lifeguard 1 (Bos taurus, UniProt Q32L53)
[1] = target: 5-hydroxytryptamine receptor 2B (Bos taurus, UniProt Q8MI09)
[2] = target: 5-hydroxytryptamine receptor 6 (Bos mutus, UniProt L8HST4)
[3] = target: Solute carrier family 22 member 1 (Bos taurus, UniProt A7MBE0)
[4] = target: 5-hydroxytryptamine 1D receptor (Bos taurus, UniProt Q8MI13)
[5] = target: 5-hydroxytryptamine receptor 1B (Bos mutus, UniProt L8IGV0)
Chain of 5-hydroxytryptamine receptor 1B (L8IGV0 whole entry): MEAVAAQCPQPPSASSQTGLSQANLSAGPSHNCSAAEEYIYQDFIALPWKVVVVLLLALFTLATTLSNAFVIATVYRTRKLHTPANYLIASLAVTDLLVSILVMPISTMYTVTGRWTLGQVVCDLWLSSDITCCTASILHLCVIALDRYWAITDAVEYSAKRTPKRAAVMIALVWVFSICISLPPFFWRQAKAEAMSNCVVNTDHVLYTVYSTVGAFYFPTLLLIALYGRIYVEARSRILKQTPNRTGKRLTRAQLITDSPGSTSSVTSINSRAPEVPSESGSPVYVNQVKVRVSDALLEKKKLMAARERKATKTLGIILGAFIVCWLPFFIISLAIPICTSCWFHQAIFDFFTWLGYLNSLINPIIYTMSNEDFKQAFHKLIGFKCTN

Thromboxane-A synthase = Thromboxane-A synthase (Bos taurus, UniProt Q2KIG5)
[6] = target: 5-hydroxytryptamine receptor 7 (Bos mutus, UniProt L8II28)
Nischarin = Nischarin (Bos mutus, UniProt L8IEU8)
Chain of Nischarin (L8IEU8 whole entry): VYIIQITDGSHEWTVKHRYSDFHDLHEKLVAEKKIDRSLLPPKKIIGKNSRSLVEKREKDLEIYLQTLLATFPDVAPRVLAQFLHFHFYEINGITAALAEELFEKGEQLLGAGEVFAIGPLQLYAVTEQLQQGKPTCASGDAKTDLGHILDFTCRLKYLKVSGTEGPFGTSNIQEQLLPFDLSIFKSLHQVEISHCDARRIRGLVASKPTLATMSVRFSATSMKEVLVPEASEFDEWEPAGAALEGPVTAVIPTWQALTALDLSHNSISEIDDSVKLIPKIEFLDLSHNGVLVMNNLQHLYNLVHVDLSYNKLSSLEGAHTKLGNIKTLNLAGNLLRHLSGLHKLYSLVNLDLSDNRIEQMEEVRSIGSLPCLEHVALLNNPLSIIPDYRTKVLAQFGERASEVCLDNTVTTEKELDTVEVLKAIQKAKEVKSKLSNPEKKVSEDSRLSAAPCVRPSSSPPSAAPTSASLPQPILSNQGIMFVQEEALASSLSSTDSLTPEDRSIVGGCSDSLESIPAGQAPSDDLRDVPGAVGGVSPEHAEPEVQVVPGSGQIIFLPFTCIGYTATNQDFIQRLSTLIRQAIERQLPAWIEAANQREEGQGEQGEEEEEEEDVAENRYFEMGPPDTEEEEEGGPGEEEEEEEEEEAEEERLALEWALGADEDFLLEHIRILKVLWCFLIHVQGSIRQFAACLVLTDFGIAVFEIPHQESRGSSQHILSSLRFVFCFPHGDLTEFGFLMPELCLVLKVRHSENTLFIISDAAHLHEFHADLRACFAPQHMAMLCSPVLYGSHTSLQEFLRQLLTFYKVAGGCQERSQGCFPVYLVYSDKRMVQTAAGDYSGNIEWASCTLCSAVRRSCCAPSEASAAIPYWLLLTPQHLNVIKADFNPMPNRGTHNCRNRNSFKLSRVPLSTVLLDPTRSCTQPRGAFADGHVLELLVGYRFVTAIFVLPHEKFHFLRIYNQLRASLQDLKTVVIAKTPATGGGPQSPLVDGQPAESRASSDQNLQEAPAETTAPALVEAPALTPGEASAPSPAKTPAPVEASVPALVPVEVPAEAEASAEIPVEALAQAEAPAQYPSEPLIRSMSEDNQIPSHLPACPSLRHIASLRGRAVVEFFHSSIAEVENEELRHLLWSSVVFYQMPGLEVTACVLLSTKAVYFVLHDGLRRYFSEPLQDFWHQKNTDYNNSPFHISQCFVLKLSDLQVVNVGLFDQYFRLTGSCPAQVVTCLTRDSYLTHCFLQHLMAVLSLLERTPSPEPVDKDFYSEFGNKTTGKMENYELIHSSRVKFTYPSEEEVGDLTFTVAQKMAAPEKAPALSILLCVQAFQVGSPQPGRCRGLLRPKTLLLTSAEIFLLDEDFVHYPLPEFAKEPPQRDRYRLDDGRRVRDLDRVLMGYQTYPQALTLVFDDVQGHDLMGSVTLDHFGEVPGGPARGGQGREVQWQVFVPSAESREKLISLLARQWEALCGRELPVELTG

Beta-arrestin-1 = Beta-arrestin-1 (Bos taurus, UniProt P17870)
Glutamate receptor [7] = target: Glutamate receptor (Bos taurus, UniProt A4FV91)
[8] = target: 5-hydroxytryptamine receptor 3A (Bos taurus, UniProt F1N4Y2)
[9] = target: Voltage-dependent L-type calcium channel subunit beta-2 (Bos taurus, UniProt Q9MZL5)
[10] = target: Beta-2 adrenergic receptor (Bos taurus, UniProt Q28044)
D(2) dopamine receptor = D(2) dopamine receptor (Bos taurus, UniProt P20288)
Chain of D(2) dopamine receptor (P20288 whole entry): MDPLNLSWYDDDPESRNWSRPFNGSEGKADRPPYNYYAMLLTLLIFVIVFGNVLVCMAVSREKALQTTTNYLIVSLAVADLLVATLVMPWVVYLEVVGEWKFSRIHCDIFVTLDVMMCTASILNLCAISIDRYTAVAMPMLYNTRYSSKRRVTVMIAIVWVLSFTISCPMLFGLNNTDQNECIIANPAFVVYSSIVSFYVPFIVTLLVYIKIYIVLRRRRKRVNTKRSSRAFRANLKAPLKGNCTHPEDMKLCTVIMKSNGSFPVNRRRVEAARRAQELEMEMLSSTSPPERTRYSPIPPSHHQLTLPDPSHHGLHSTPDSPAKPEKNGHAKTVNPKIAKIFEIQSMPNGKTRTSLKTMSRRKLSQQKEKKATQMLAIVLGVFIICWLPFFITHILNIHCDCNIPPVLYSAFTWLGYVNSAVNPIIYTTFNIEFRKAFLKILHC

[11] = target: Sodium-dependent noradrenaline transporter (Bos taurus, UniProt P51143)
Vasopressin V1a receptor = Vasopressin V1a receptor (Bos taurus, UniProt A2VDS9)
[12] = target: Potassium voltage-gated channel subfamily H member 2 (Bos taurus, UniProt A5PKI1)
[13] = target: Muscarinic acetylcholine receptor M2 (Bos taurus, UniProt P41985)
Histamine H2 receptor = Histamine H2 receptor (Bos mutus, UniProt L8IRW0)
Histamine H1 receptor = Histamine H1 receptor (Bos taurus, UniProt A5D795)
[14] = target: Kappa-type opioid receptor (Bos taurus, UniProt Q2KIP6)
Mu-type opioid receptor = Mu-type opioid receptor (Bos taurus, UniProt P79350)
[15] = target: 4-aminobutyrate aminotransferase, mitochondrial (Bos taurus, UniProt Q9BGI0)
Chain of 4-aminobutyrate aminotransferase, mitochondrial (Q9BGI0 whole entry): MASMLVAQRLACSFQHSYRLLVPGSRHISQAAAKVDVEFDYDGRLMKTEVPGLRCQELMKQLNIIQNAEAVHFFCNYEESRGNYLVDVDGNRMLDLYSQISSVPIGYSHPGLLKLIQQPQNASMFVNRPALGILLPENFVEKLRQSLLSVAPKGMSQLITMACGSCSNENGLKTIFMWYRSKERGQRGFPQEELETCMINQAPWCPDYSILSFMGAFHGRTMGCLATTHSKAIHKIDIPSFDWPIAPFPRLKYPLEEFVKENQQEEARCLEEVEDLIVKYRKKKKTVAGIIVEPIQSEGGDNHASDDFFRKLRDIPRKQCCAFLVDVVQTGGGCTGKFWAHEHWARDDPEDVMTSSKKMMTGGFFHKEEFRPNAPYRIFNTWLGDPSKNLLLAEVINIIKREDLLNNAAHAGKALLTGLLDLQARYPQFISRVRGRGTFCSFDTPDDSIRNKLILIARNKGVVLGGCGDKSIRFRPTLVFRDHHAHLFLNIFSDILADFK

Neuromedin-K receptor = Neuromedin-K receptor (Bos mutus, UniProt L8IYF9)
[16] = target: Vesicle amine transport protein 1 homolog (T. californica)-like (Bos taurus, UniProt Q29RL6)
Chain of Vesicle amine transport protein 1 homolog (T. californica)-like (Q29RL6 whole entry): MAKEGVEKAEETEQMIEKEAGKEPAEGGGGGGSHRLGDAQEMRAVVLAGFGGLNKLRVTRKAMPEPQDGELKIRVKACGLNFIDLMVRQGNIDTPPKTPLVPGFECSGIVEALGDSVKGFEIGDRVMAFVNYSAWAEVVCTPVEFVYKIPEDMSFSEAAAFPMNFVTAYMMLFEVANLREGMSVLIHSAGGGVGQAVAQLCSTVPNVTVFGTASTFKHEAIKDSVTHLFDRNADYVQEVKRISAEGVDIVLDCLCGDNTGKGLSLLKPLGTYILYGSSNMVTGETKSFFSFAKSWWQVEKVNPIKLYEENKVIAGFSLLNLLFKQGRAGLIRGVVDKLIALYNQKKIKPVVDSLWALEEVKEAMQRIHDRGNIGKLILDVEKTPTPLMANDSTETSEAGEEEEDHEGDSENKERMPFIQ

Cannabinoid receptor 2 = Cannabinoid receptor 2 (Bos taurus, UniProt E1B9P2)
D(1A) dopamine receptor = D(1A) dopamine receptor (Bos taurus, UniProt Q95136)
[17] = target: 5-hydroxytryptamine receptor 5A (Bos mutus, UniProt L8HQU1)
[18] = target: Sodium-dependent dopamine transporter (Bos taurus, UniProt P27922)
Vasopressin V1b receptor = Vasopressin V1b receptor (Bos taurus, UniProt F1ME85)
Chain of Vasopressin V1b receptor (F1ME85 whole entry): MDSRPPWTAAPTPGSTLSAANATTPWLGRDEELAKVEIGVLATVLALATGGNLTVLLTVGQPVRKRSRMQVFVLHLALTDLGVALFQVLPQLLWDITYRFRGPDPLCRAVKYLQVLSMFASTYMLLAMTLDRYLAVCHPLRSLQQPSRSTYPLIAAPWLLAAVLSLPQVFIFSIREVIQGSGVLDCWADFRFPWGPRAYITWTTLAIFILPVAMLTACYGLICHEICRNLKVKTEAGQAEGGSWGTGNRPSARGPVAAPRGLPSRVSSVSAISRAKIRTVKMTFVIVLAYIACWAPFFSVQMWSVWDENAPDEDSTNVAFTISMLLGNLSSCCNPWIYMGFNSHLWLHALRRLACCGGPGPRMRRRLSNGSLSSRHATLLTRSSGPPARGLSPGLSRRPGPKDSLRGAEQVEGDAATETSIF

[19] = target: Gamma-aminobutyric acid receptor subunit alpha-1 (Bos taurus, UniProt P08219)
[20] = target: Multidrug resistance protein 1 (Bos taurus, UniProt Q65A17)
Chain of Multidrug resistance protein 1 (Q65A17 whole entry): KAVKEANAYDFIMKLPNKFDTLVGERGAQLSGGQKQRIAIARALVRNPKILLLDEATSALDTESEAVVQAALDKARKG

Vasopressin V2 receptor = Vasopressin V2 receptor (Bos taurus, UniProt P48044)
Substance-K receptor = Substance-K receptor (Bos taurus, UniProt P05363)
[21] = target: 5-hydroxytryptamine receptor 2A (Bos taurus, UniProt Q75Z89)
Glutamate receptor [22] = target: Glutamate receptor (Bos taurus, UniProt E1BGZ0)
Chain of Glutamate receptor (Bos taurus, UniProt E1BGZ0) (E1BGZ0 whole entry): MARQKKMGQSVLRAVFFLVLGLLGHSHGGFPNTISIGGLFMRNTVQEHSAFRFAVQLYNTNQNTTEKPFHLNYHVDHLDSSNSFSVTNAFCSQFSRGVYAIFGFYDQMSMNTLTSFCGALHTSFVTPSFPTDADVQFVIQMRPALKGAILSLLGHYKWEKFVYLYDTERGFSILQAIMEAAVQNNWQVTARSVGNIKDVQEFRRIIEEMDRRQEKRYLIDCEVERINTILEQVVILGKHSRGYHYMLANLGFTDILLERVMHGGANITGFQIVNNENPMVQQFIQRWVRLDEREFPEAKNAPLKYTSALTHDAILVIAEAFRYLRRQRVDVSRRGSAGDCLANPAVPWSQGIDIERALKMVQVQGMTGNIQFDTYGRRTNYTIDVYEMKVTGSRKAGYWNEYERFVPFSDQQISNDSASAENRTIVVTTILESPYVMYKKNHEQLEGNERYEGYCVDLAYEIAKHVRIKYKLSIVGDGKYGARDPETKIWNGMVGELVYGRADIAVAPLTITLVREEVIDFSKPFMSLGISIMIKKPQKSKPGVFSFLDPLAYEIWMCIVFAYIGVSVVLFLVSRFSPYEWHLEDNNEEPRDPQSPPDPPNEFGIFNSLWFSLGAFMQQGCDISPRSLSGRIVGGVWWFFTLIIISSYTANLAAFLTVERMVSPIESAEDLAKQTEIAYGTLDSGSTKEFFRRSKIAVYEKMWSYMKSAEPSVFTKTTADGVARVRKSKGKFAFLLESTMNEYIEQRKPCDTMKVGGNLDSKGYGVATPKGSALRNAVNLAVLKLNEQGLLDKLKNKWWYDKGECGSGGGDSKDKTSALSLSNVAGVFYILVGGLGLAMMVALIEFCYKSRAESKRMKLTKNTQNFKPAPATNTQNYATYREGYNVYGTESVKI

Dopamine receptor D4 = Dopamine receptor D4 (Bos taurus, UniProt Q8WNT0)
Beta-arrestin-2 = Beta-arrestin-2 (Bos taurus, UniProt P32120)

Chain of Protein lifeguard 1 (Q32L53 whole entry): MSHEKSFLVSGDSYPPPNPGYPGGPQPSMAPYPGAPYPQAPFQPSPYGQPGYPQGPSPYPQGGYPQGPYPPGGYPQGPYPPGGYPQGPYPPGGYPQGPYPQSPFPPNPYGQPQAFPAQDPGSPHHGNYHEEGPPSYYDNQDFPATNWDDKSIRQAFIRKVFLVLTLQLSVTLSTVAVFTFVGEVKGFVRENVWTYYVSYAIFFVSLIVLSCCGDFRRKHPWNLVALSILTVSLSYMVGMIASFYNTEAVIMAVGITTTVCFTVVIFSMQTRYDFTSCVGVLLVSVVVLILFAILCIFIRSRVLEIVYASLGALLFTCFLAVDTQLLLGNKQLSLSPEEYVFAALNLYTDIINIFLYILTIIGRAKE

COc1ccccc1N1CCN(CCCCn2ncc(=O)n(C)c2=O)CC1 [NSC_11603174]
Ki (Histamine receptor H3): > 10 µM
Ki (Protein lifeguard 1): > 10 µM
Ki [1]: 0.0736 µM
Ki [2]: > 10 µM
Ki [3]: 0.00675 µM
Ki [4]: 0.0883 µM
Ki [5]: 0.643 µM
Ki (Thromboxane-A synthase): > 10 µM
Ki [6]: 0.0129 µM
Ki (Nischarin): > 10 µM
Ki (Beta-arrestin-1): > 10 µM
Ki (Glutamate receptor [7]): > 10 µM
Ki [8]: > 10 µM
Ki [9]: > 10 µM
Ki [10]: > 10 µM
Ki (D(2) dopamine receptor): > 10 µM
Ki [11]: > 10 µM
Ki (Vasopressin V1a receptor): > 10 µM
Ki [12]: > 10 µM
Ki [13]: > 10 µM
Ki (Histamine H2 receptor): 2.13 µM
Ki (Histamine H1 receptor): 1.03 µM
Ki [14]: > 10 µM
Ki (Mu-type opioid receptor): > 10 µM
Ki [15]: > 10 µM
Ki (Neuromedin-K receptor): > 10 µM
Ki [16]: > 10 µM
Ki (Cannabinoid receptor 2): > 10 µM
Ki (D(1A) dopamine receptor): > 10 µM
Ki [17]: > 10 µM
Ki [18]: > 10 µM
Ki (Vasopressin V1b receptor): > 10 µM
Ki [19]: > 10 µM
Ki [20]: > 10 µM
Ki (Vasopressin V2 receptor): > 10 µM
Ki (Substance-K receptor): > 10 µM
Ki [21]: 4.98 µM
Ki (Glutamate receptor [22]): > 10 µM
Ki (Dopamine receptor D4): 0.0218 µM
Ki (Beta-arrestin-2): > 10 µM
